Laboratory results reported in ChEMBL document CHEMBL1201862, “PubChem BioAssay data set” (2004).
Activity calls are given as the source filed them.

How the values were obtained:
[1] = inhibitors of HIV Env-driven cell fusion, dose response, cherry-pick (AID 652057); type: functional, cell-based
[2] = inhibitors of clade B AD8 Env fusion, dose response, cell-based, cherry-pick (AID 652062); type: functional;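 also: luciferase signal from cell-cell fusion driven by HIV-1 clade B AD8 Env; potency is for inhibitors of fusion seen as a drop in luminescence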
[3] = P. falciparum 3D7-ScDHODH growth inhibitors, dose response, SYBR Green, dry powder samples (AID 1159570); type: functional, cell-based;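 also: parasite growth measured after 72 hours of compound exposure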
[4] = P. falciparum Dd2 growth inhibitors, dose response, SYBR Green, cherry-picked samples (AID 1159567); type: functional, cell-based
[5] = P. falciparum Dd2 growth inhibitors, dose response, SYBR Green, dry powder samples (AID 1159566); type: functional, cell-based;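 also: potency for growth inhibition with lower SYBR green DNA signal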
[6] = P. falciparum ATP4 D1247Y mutant growth inhibitors, dose response, NITD609-resistant line, SYBR Green, dry powder (AID 1159571); type: functional, cell-based;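 also: parasites synchronized at ring stage by sorbitol before testing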
[7] = ZM109 Env clade C HIV-1 fusion inhibitors, dose response, HeLa effector, CEM target cells, luciferase, cherry-pick (AID 652058); type: functional, cell-based
[8] = target: Voltage-dependent T-type calcium channel subunit alpha-1H (Homo sapiens, UniProt O95180); type: functional;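 also: channel activity triggered by adding a high calcium stimulation buffer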
Chain of Voltage-dependent T-type calcium channel subunit alpha-1H (O95180 whole entry): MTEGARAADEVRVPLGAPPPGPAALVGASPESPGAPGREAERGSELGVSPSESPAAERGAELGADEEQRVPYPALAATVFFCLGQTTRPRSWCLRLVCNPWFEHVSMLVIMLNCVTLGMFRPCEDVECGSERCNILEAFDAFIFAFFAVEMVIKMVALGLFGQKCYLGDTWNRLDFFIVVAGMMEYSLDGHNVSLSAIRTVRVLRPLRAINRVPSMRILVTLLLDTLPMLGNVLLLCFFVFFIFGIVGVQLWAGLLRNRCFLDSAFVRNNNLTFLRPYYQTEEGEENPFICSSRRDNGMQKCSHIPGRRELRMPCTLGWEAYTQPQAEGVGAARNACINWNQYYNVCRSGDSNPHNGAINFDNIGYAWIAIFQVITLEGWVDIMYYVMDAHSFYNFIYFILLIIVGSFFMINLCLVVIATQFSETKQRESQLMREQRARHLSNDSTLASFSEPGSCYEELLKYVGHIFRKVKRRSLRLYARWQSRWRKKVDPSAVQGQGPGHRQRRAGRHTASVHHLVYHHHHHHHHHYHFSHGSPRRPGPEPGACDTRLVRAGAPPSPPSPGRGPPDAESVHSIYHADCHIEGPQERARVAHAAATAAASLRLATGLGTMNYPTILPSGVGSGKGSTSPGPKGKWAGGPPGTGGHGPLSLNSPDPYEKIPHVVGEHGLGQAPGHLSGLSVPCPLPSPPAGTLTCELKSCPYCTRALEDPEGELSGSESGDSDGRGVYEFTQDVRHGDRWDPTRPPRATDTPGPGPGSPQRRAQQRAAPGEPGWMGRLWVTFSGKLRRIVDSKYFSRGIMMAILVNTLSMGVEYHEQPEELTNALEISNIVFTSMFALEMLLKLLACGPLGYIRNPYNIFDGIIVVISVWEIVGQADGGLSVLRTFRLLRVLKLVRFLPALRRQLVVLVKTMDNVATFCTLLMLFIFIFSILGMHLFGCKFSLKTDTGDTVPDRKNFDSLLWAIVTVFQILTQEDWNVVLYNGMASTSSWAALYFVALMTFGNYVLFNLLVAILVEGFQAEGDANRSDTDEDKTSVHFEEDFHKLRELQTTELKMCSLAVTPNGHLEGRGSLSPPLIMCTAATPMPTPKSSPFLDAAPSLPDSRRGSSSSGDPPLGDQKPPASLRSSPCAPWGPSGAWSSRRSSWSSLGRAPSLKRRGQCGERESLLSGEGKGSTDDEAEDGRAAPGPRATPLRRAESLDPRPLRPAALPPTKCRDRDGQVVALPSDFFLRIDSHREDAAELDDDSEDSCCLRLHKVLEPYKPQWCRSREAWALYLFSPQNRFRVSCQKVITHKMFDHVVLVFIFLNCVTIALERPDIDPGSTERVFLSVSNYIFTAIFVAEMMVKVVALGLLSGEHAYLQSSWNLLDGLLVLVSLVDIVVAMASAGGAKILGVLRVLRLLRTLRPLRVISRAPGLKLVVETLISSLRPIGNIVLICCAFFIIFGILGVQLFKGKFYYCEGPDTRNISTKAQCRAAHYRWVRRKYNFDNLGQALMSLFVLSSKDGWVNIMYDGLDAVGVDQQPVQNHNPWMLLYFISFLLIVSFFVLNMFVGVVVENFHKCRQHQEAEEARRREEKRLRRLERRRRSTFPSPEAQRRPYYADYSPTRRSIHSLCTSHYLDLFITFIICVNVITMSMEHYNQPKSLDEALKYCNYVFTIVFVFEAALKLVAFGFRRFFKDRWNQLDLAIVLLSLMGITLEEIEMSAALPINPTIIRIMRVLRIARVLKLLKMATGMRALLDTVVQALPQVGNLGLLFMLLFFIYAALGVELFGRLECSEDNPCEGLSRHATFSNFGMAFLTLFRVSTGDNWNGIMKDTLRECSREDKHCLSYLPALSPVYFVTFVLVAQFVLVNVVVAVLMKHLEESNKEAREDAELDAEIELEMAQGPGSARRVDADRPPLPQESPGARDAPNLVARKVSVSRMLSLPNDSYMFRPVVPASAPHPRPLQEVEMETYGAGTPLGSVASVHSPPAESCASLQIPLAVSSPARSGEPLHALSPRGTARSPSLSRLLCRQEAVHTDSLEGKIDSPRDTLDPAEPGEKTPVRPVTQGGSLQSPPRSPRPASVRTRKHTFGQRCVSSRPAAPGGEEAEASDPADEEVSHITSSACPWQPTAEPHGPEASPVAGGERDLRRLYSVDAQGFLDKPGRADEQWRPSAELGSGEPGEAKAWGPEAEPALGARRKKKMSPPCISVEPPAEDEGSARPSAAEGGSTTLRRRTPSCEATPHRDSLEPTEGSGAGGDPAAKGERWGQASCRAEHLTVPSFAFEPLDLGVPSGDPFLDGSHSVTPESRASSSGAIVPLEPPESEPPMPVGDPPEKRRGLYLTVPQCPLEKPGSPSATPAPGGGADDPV

[9] = cells; type: functional, cell-based
[10] = cells; type: functional, cell-based; remark: listed apart in the source
[11] = target: Nonstructural protein 1 (Influenza A virus, UniProt Q194T2); type: functional, Influenza A virus (A/California/07/2009(H1N1))
Chain of Nonstructural protein 1 (Q194T2 whole entry): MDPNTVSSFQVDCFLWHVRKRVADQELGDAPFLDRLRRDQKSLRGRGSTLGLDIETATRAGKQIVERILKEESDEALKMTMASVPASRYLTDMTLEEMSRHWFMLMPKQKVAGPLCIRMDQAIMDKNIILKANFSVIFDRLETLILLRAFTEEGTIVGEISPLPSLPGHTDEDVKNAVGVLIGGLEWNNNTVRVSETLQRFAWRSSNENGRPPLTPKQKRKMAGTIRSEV

[12] = target: Nuclear receptor subfamily 5 group A member 2 (Homo sapiens, UniProt O00482); type: functional, cell-based;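 also: HEK293T cells transfected with LRH-1 and a StAR promoter luciferase reporter; potency for inhibitors that lower LRH-1 driven reporter light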
Chain of Nuclear receptor subfamily 5 group A member 2 (O00482 whole entry): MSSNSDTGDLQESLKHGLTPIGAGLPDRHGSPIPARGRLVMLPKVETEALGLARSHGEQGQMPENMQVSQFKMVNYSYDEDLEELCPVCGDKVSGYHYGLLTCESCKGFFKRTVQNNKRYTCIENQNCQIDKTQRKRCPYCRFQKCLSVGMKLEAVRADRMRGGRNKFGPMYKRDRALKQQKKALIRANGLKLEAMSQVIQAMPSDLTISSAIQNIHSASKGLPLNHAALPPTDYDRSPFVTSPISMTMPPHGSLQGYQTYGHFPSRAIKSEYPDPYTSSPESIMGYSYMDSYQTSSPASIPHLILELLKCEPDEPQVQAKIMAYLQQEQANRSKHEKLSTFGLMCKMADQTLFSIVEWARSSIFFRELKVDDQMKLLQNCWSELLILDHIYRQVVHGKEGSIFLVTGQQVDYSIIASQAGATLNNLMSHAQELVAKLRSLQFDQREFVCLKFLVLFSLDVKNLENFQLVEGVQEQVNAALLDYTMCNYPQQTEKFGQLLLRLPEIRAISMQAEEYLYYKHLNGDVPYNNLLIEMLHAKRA

[13] = target: Steroidogenic factor 1 (Homo sapiens, UniProt Q13285); assay: Counterscreen for inverse agonists of the liver receptor homolog-1 (LRH-1; NR5A2): Luminescence-based cell-based high throughput dose response assay to identify inverse agonists of the Steroidogenic Factor 1 Nuclear Receptor (SF1; NR5A1).; type: functional
Chain of Steroidogenic factor 1 (Q13285 whole entry): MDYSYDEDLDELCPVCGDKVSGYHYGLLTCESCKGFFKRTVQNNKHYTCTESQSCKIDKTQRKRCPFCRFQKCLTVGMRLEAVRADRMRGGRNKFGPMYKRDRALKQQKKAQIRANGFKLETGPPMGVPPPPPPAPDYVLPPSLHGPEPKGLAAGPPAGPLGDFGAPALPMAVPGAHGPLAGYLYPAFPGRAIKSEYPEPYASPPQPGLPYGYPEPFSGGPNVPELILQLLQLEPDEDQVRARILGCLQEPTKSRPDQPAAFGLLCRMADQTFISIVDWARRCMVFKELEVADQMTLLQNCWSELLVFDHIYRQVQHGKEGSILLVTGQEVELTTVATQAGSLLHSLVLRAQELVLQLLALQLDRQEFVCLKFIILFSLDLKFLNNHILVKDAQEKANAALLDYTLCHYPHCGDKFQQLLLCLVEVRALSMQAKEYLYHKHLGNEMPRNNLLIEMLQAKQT

[14] = StAR promoter reporter inhibition counter-screen, dose response, counter-screen for LRH-1 inverse agonist project, cell-based, luminescence, luciferase reporter (AID 651969); type: functional
[15] = A Cell Based Secondary Assay To Explore Cytotoxicity of Compounds that Sensitize Mycobacterium Tuberculosis to Beta-Lactam Antibiotics.; type: functional
[16] = target: T1, Streptokinase A (Streptococcus pyogenes serotype M1, UniProt P10520); assay: S. pyogenes streptokinase expression inhibitors, potency, dose response, plasminogen activation absorbance, OD405 (AID 1914); type: functional, Streptococcus pyogenes M1 GAS;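 also: secreted streptokinase activity via plasminogen activation per viability signal from cell pellet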
T1 sequence (P10520 whole entry): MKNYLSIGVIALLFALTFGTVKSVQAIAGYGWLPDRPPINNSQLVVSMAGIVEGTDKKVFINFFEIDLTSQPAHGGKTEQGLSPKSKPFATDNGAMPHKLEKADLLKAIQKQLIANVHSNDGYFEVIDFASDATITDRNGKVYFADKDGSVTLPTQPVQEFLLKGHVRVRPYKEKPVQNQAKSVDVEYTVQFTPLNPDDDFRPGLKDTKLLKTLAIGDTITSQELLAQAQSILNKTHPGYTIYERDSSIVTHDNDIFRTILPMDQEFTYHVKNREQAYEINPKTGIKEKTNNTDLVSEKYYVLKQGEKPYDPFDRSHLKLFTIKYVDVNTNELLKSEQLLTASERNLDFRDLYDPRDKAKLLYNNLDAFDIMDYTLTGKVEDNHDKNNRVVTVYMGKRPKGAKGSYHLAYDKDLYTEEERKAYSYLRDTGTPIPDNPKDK

[17] = tested on: Streptococcus; assay: Group A Streptococcus viability loss, dose response, counter-screen for streptokinase expression inhibitor project, luminescence, BacTiterGlo (AID 1915); type: functional, organism-based;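 also: potency for reduction of bacterial viability or growth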
[18] = target: T2, Histone-lysine N-methyltransferase NSD2 (Homo sapiens, UniProt O96028); type: biochemical
T2 sequence (O96028 whole entry): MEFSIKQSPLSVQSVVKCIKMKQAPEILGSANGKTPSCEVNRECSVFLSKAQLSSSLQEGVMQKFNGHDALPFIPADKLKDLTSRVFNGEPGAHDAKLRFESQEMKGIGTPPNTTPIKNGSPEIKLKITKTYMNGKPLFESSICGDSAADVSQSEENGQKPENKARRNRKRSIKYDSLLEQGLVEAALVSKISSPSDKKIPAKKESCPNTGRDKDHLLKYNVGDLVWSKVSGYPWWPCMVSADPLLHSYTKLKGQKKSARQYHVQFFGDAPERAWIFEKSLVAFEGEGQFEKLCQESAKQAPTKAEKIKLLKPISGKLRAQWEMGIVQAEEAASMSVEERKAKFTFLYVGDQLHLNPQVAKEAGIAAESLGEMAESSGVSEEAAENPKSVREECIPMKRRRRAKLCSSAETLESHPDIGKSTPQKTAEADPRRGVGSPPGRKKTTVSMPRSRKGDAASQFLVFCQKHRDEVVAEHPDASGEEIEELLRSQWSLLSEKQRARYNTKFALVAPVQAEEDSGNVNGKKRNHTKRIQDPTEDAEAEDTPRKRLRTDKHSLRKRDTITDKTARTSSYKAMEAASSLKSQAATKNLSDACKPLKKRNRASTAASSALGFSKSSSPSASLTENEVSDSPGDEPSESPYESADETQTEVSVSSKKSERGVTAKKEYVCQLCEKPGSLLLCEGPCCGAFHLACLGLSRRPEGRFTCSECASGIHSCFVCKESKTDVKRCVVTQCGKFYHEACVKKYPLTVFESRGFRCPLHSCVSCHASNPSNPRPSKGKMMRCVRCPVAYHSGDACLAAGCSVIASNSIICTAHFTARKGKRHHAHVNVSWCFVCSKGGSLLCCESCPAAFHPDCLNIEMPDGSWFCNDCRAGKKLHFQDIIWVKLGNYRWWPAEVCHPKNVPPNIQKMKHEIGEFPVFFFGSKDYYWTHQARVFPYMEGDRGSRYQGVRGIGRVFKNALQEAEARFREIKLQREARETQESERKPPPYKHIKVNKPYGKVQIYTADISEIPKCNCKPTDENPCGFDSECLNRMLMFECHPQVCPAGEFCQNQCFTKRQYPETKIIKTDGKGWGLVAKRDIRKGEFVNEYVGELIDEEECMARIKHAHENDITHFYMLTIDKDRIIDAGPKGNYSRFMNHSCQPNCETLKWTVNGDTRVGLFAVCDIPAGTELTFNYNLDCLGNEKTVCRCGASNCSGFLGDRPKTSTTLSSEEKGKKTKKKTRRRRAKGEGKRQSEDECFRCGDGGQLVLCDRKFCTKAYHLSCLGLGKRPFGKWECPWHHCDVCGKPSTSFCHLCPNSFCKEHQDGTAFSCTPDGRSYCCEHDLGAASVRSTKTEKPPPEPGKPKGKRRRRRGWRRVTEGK

[19] = A549 cell cytotoxicity, dose response, cytotoxicity control, plate reader, cherry-pick, antagonist series (AID 743412); type: functional, cell-based
[20] = inhibitors of intracellular T. cruzi replication, confirmation, NIH3T3 host cells, beta-gal luminescence (AID 2044); type: functional, cell-based;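 also: intracellular parasites grown in NIH/3T3 mouse fibroblasts as host cells; luminescent beta-galactosidase reporter signal from transgenic T. cruzi replicating inside host cells; inhibitors lower the luminescence signal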
[21] = microbe, parasite or virus in culture; type: functional; conditions: Mycobacterium tuberculosis
[22] = cytotoxicity toward NIH3T3 fibroblasts, dose response, counter-screen, cell-based, ATP luminescence, mouse fibroblasts (AID 2010); type: functional;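 also: cells exposed to compound for about 90 hours before reading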
[23] = Luminescence Cell-Based Dose Retest to Confirm Inhibitors of Cancer Stem Cells. [Related pubchem assays (depositor defined):AID2717, AID2721]; type: functional; conditions: Homo sapiens
[24] = tested on: H9c2; assay: cells; type: functional, cell-based; conditions: Rattus norvegicus, H9c2, Myocardium;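 also: confirmatory concentration-response retest of ultra-high-throughput screening hits for modulation of myocardial damage; cell death induced by hydrogen peroxide oxidative stress; compound pretreatment for 60 min then peroxide exposure for 2 h; potency is for protecting the cells against peroxide damage rather than for killing them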
[25] = target: Cytochrome P450 2C19 (Homo sapiens, UniProt P33261); assay: Cytochrome panel assay with activity outcomes. Panel member name: p450-cyp2c19 Compounds with AC50 equal or less than 10 uM are considered active; type: functional; conditions: read-out: AC50
Chain of Cytochrome P450 2C19 (P33261 whole entry): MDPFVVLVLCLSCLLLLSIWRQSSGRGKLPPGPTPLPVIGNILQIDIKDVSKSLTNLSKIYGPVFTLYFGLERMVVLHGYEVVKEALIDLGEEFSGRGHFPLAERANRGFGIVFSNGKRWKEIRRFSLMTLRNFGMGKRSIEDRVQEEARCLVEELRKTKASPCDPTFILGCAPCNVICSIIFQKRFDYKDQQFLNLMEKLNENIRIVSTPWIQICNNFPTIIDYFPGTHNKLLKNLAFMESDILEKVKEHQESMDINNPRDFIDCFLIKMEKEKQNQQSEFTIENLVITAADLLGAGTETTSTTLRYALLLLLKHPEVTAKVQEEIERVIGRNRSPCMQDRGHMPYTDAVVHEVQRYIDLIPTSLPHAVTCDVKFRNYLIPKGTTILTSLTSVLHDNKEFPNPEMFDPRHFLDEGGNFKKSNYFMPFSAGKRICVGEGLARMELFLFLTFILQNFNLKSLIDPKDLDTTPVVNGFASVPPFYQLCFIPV

[26] = target: Cytochrome P450 2D6 (Homo sapiens, UniProt P10635);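 also: CYP2D6 member of a cytochrome P450 panel assay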
Chain of Cytochrome P450 2D6 (P10635 whole entry): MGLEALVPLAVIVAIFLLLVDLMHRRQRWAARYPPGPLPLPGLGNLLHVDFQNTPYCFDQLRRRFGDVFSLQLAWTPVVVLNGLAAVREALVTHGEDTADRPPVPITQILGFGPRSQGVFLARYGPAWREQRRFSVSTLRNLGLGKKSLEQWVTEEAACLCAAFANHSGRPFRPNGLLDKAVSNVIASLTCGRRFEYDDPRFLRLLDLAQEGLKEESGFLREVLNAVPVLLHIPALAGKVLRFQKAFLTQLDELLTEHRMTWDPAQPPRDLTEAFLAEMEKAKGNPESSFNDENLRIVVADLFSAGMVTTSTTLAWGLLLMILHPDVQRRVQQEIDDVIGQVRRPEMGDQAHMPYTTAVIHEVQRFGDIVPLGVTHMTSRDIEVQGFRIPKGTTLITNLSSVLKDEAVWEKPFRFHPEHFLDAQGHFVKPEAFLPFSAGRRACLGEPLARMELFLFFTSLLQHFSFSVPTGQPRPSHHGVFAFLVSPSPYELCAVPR

[27] = target: T3, Cytochrome P450 1A2 (Homo sapiens, UniProt P05177);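 also: PubChem cytochrome P450 panel assay, CYP1A2 panel member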
T3 sequence (P05177 whole entry): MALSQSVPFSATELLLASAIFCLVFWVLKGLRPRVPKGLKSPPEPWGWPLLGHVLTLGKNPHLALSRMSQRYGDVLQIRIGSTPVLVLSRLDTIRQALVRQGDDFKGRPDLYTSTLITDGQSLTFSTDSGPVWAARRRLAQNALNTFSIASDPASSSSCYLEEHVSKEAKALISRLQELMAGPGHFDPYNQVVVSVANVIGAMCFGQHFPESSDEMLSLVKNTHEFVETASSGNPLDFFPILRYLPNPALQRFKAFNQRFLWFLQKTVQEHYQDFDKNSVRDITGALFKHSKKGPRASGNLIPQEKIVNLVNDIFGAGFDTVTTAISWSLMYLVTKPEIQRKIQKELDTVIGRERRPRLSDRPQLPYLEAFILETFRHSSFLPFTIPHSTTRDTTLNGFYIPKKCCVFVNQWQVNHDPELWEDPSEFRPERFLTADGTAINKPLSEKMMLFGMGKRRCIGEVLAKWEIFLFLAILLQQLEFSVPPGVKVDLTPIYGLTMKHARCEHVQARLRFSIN

[28] = intracellular Trypanosoma cruzi inhibitors in host cells – cell-based, plate reader, cherry-pick samples, set 3, dose response (AID 651818); type: functional;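 also: compounds incubated with infected cells for about four days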

COc1cccc(S(=O)(=O)N(C)C[C@H]2Oc3cc(C#CCC(C)C)ccc3S(=O)(=O)N([C@H](C)CO)C[C@H]2C)c1
AC50 [1]: 34.5 µM (active) | AC50 [2]: 17.9 µM (active)

CO[C@@H]1CN(C)C(=O)c2ccc(NC(=O)c3nc4ccccc4s3)cc2OC[C@H](C)N(Cc2ccncc2)C[C@@H]1C
AC50 [3]: 1.86 µM (active) | AC50 [4]: 0.985 µM (active) | AC50 [5]: 0.792 µM (active) | AC50 [6]: 0.725 µM (active)

Cc1ccc(S(=O)(=O)Nc2cccc3c2O[C@H](CN(C)Cc2ccc(Cl)c(Cl)c2)[C@H](C)CN([C@H](C)CO)C3=O)cc1
AC50 [1]: < 0.26 µM (active) | AC50 [7]: 0.308 µM (active) | AC50 [2]: 1.37 µM (active)

Cc1ccc(S(=O)(=O)NC(=O)c2ccc(-c3ccc(-c4ccccc4)cc3)o2)c(C)c1
EC50 [8]: 3.33 µM (active)

COc1cc(C(=O)Nc2sc(C)c(C)c2C(=O)O)cc(OC)c1OC
EC50 [9]: > 350 µM (not active) | EC50 [10]: > 350 µM (not active)

O=C(CN1CCCC1)N/N=C/c1c(O)ccc2ccccc12
EC50 [9]: 8.38 µM (active) | EC50 [10]: > 350 µM (not active) | IC50 [11]: 9.17 µM (active)

O=C(COC(=O)CCN1C(=O)C2CC=CCC2C1=O)NCCc1ccccc1 (configuration not stated)
IC50 [12]: 38 µM (inactive) | IC50 [13]: 25.8 µM (inactive) | IC50 [14]: 35.9 µM (inactive)

FC(F)Oc1ccccc1C1CC(c2ccc(Br)s2)Nc2ncnn21 (configuration not stated)
CC50 [15]: > 40 µM (active) | EC50 [16]: > 150 µM (not active) | EC50 [17]: > 150 µM (not active)

COc1ccc(CCNC(=O)CSc2nn3c(=O)c(C)nnc3s2)cc1OC
IC50 [12]: 35.9 µM (inactive) | IC50 [13]: 12 µM (inactive) | IC50 [14]: 35.9 µM (inactive)

Cc1ccc(-n2nnnc2-c2cnn(-c3ccc(F)cc3)c2C(F)(F)F)cc1
AC50 [2]: 33.9 µM (active)

CCOC(=O)c1c(C)nc2sc(C(=O)Nc3ccccc3)c(N)c2c1-c1ccc(OC)cc1
CC50 [15]: 3.99 µM (active)

Nc1c(C(=O)OCC2CCCO2)c2nc3ccccc3nc2n1C1CCCCC1 (configuration not stated)
AC50 [18]: 10 µM (active)

O=C(Nc1ccc(N2CCOCC2)c(S(=O)(=O)Nc2ccccc2Cl)c1)c1ccc(F)cc1
AC50 [19]: > 52 µM (inactive)

CCCOc1ccc(NC(=O)CC2C(=O)N(C)C(=S)N2Cc2ccc3c(c2)OCO3)cc1 (configuration not stated)
IC50 [12]: 1.67 µM (active) | IC50 [13]: 2.03 µM (active) | IC50 [14]: 35.9 µM (inactive)

COc1ccc(CCNC(=O)CN2C(=O)NC3(CCCCC3C)C2=O)cc1 (configuration not stated)
IC50 [12]: 1.31 µM (active) | IC50 [13]: 4.78 µM (active) | IC50 [14]: 35.9 µM (inactive)

COc1ccc2c3c(n(C)c2c1)[C@@H](CO)N(C(=O)C1CC1)CC31CCN(C(=O)Nc2cccc(F)c2)CC1
AC50 [3]: 0.171 µM (active) | AC50 [4]: 0.506 µM (active) | AC50 [5]: 0.343 µM (active) | AC50 [6]: 0.441 µM (active)

Cc1cccc(N2CCN(CC(=O)Nc3nccs3)CC2)c1C
EC50 [8]: 6.29 µM (active)

CC1(C)CN(c2cccc(C#N)c2)C1=O
AC50 [18]: 10.7 µM (active)

Cc1ccccc1N1CCN(C(=O)c2ccc(Oc3ccc(C(F)(F)F)cn3)cc2)CC1
EC50 [20]: 2.32 µM (active) | CC50 [21]: > 40 µM (active) | EC50 [22]: > 60 µM (not active) | EC50 [8]: 5.89 µM (active) | AC50 [23]: 3.43 µM (active)

c1ccc(-c2oc3ncnc(NCCN4CCOCC4)c3c2-c2ccccc2)cc1
CC50 [15]: > 40 µM (active) | IC50 [24]: > 79 µM (inactive)

Cc1ccc(S(=O)(=O)N(C)C[C@H]2OCc3ccccc3-c3c(n(C)c4ccccc34)C(=O)N([C@H](C)CO)C[C@@H]2C)cc1
AC50 [3]: 1.27 µM (active) | AC50 [4]: 2.36 µM (active) | AC50 [5]: 1.47 µM (active) | AC50 [6]: 1.08 µM (active)

COC(=O)[C@@]1(Cc2ccc(F)cc2)[C@H]2c3cc(C(=O)N(C)C)n(Cc4ccc(OC)c(OC)c4)c3C[C@H]2CN1C(=O)c1ccccc1
CC50 [15]: > 40 µM (active) | AC50 [25]: 39.8 µM (inconclusive) | AC50 [26]: 39.8 µM (inconclusive) | AC50 [27]: 31.6 µM (inconclusive)

O=S(=O)(c1cccc(S(=O)(=O)N2CCC(Cc3ccccc3)CC2)c1)N1CCOCC1
EC50 [8]: 8.09 µM (active)

CC(C)Oc1cccc(-c2cc(C(=O)NN3CCOCC3)c3ccccc3n2)c1
IC50 [12]: 35.9 µM (inactive) | IC50 [13]: 15.9 µM (inactive) | IC50 [14]: 35.9 µM (inactive)

Nc1nc(SCC(=O)N2CCCC2)nc(O)c1-c1ccccc1
EC50 [9]: > 350 µM (not active) | EC50 [10]: > 350 µM (not active)

COc1ccc(NC(=O)Nc2ccc3c(c2)C(=O)N([C@H](C)CO)C[C@H](C)[C@H](CN(C)Cc2ccc(Cl)c(Cl)c2)OCCCC[C@@H](C)O3)cc1
AC50 [28]: 7.11 µM (active)
